Results on one compound are retold here after patent US10005817B2, “Peptide pharmaceuticals” (EUMEDERIS PHARMACEUTICALS, INC., priority 2012, dated 2018).

This assay addresses T1, GLP-1 R (Mus musculus, UniProt O35659).
T1 construct: GLP-1 (murine cell line) cellular assays
T1 sequence (O35659 22-463): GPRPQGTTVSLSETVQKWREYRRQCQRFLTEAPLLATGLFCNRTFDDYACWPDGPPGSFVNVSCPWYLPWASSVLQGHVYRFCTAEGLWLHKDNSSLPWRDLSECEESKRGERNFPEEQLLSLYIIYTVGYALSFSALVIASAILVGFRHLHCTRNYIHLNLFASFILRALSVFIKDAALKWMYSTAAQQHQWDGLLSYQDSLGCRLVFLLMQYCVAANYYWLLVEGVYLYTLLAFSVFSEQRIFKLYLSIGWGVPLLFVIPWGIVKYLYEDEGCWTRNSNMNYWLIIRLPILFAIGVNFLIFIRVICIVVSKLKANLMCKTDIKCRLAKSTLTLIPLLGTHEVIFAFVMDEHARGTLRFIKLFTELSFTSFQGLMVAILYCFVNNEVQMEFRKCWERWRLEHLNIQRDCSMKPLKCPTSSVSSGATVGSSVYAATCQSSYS
Kind of assay: GLP-1 cellular assay, cAMP stimulation (murine cell line, Cerep). Particulars: n.c. = EC50 not calculable. The assay is classed as cell-based. On the procedure: Compounds were weighed precisely in an amount of approximately 1 mg and assayed in standard cellular assays (Cerep SA). The readout is the amount of cAMP generated in the cells treated with the test compounds, in either agonist or antagonist mode. […] The assays are described in Chicchi, G. G., et al. (1997) J Biol Chem 272: 7765-7769 and Runge, S., et al. (2003) Br J Pharmacol 138: 787-794.

As a reminder, the EC50 is the concentration needed to bring the measured effect to its halfway point. `CCCCCCCCCCCCO[C@@H]1O[C@H](C(=O)NCCCC[C@H](NC(=O)[C@@H]2CCCCNC(=O)CC[C@H](NC(=O)[C@H](CC(=O)O)NC(=O)[C@H](CC(C)C)NC(=O)[C@H](Cc3ccc(O)cc3)NC(=O)[C@H](CCCCN)NC(=O)[C@H](CO)NC(=O)[C@H](Cc3ccc(O)cc3)NC(=O)[C@H](CC(=O)O)NC(=O)[C@H](CO)NC(=O)[C@@H](NC(=O)[C@H](Cc3ccccc3)NC(=O)[C@@H](NC(=O)CNC(=O)[C@H](CCC(N)=O)NC(=O)C(C)(C)NC(=O)[C@@H](N)Cc3c[nH]cn3)[C@@H](C)O)[C@@H](C)O)C(=O)N[C@@H](CCCNC(=N)N)C(=O)N[C@@H](C)C(=O)N[C@@H](C)C(=O)N2)C(=O)N[C@@H](Cc2ccccc2)C(=O)NC(C)(C)C(N)=O)[C@@H](O)[C@H](O)[C@H]1O` [EU-A455]: the concentration for a half-maximal effect (EC50) was 59 nM.
